Laboratory results: ChEMBL document CHEMBL1201862, “PubChem BioAssay data set” (2004)
The source made the active and inactive calls.

Tests used:
[1] = target: T1, Short transient receptor potential channel 4 (Mus musculus, UniProt Q9QUQ5); experiment: mouse TRPC4 channel activators, dose response, cell-based, HEK293 TRPC4/mu-opioid, Fluo-4 calcium (AID 434937); type: functional
T1 sequence (Q9QUQ5 whole entry): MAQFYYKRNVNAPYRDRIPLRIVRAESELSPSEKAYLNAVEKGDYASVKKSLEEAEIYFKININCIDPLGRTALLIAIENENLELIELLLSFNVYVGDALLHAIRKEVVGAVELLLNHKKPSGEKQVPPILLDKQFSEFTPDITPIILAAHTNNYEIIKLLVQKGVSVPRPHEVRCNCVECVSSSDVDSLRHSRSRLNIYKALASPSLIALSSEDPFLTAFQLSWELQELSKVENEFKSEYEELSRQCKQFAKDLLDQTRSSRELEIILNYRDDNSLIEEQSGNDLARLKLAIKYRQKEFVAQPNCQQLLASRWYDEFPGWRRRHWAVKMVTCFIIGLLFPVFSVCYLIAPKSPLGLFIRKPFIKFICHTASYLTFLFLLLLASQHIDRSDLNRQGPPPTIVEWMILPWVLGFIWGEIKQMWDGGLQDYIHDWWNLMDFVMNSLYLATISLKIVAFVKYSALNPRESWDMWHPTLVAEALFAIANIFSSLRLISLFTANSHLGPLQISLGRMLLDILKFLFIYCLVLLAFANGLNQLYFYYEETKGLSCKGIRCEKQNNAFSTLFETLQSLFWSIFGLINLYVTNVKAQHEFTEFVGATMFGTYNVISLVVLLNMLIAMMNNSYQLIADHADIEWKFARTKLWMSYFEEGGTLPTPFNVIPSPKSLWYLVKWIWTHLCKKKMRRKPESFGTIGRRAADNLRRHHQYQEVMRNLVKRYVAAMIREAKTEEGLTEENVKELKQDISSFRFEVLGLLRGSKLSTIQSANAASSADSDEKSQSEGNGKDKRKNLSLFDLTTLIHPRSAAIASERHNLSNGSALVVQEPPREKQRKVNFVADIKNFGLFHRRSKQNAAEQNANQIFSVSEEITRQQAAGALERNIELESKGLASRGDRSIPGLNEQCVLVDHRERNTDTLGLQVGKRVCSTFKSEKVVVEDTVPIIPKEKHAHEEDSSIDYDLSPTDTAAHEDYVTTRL

[2] = target: T2, Bcl-2-related protein A1 (Mus musculus, UniProt Q07440); experiment: Bfl-1 binding inhibitors, SAR follow-up, biochemical, fluorescence polarization (AID 1070)
T2 sequence (Q07440 whole entry): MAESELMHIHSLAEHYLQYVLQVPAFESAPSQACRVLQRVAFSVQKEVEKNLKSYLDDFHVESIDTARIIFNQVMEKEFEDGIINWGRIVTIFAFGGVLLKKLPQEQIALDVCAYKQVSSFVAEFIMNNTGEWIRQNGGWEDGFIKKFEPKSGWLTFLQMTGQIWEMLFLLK

[3] = target: T2, Bcl-2-related protein A1; experiment: Bfl-1 inhibitors blocking BH3 peptide binding, confirmation, biochemical, TR-FRET, mouse Bfl-1 (AID 621);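 also: TR-FRET binding of GST-Bfl-1 to FITC-labelled Bid peptide via terbium antibody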
[4] = target: Glyceraldehyde-3-phosphate dehydrogenase (Homo sapiens, UniProt P04406)
Glyceraldehyde-3-phosphate dehydrogenase, sequence (P04406 whole entry): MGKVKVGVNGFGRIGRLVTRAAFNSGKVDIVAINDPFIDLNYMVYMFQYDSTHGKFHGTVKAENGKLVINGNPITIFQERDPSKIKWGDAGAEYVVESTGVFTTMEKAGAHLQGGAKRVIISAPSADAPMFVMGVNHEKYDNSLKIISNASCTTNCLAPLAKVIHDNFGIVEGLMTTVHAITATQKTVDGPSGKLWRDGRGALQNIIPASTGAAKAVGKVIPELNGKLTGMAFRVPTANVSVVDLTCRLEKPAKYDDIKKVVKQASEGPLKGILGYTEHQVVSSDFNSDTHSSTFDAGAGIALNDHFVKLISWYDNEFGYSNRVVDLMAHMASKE

[5] = cells
[6] = HEp-2 cell cytotoxicity, dose response, cytotoxicity control for RSV inhibitor project, HTS (AID 2410); type: functional; conditions: human respiratory syncytial virus
[7] = target: Estrogen receptor beta (Homo sapiens, UniProt Q92731); experiment: ERβ–SRC-3 coactivator interaction inhibitors, confirmation, orthogonal assay, biochemical, ELISA, streptavidin-HRP readout (AID 1060)
Estrogen receptor beta, sequence (Q92731 whole entry): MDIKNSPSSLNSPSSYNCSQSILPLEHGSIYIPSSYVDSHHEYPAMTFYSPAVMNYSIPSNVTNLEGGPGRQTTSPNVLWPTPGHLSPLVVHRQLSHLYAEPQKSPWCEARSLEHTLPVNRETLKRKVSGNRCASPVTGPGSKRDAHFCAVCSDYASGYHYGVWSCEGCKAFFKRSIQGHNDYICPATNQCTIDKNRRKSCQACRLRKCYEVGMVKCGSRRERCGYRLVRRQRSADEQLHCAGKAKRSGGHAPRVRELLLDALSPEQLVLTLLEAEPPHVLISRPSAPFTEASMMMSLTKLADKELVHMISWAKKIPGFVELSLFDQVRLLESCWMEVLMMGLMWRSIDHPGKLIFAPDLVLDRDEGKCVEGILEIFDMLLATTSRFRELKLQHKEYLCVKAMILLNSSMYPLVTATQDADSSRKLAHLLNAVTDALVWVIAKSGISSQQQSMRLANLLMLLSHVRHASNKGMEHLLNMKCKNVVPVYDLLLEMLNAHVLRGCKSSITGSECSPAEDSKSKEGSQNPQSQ

[8] = Luminescence Cell-Based Dose Retest to Confirm Inhibitors of Cancer Stem Cells. [Related pubchem assays (depositor defined):AID2717, AID2721]; type: functional; conditions: Homo sapiens
[9] = target: G-protein coupled receptor 55 (Homo sapiens, UniProt Q9Y2T6); experiment: GPR55 antagonists blocking LPI-driven arrestin recruitment, primary screen, imaging, U2OS, beta-arrestin-GFP, LPI agonist (AID 2013); type: functional;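 also: antagonist potency measured as reduced agonist-driven arrestin aggregation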
G-protein coupled receptor 55, sequence (Q9Y2T6 whole entry): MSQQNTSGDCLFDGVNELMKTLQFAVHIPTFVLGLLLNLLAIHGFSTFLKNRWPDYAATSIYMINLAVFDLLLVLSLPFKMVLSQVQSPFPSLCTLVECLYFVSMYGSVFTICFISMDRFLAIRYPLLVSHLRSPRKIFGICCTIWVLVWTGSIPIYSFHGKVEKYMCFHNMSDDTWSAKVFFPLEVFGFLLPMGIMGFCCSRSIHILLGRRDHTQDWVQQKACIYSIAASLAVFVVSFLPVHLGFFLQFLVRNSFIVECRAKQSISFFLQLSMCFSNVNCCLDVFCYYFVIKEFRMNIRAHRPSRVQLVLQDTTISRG

[10] = test system: Vero; experiment: cells; type: functional; conditions: Chlorocebus sabaeus
[11] = test system: Vero; experiment: cells; type: functional, cell-based; conditions: Chlorocebus sabaeus
[12] = insulin promoter down-regulators in MIN6 cells, imaging, high-content screening, mouse beta cells (AID 1628); type: functional
[13] = cytotoxicity in MIN6 insulinoma cells, dose response, cytotoxicity control, cell-based, mouse insulinoma (AID 2122); type: functional;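 also: confirmatory high-throughput counterscreen run to flag cytotoxic compounds; mouse MIN-6 beta cells carrying an insulin promoter eGFP reporter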
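For AC50 in this document: cells exposed to compound for roughly 70 hours or longer before luminescence read.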

Structure (SMILES): Cc1cc(OCCCn2ccnc2)ccc1[N+](=O)[O-]
- EC50 [1]: 4.73 µM (active)

Structure (SMILES): O=C1C(Cl)=C(N2CCN(CCNCc3ccccn3)CC2)C(=O)N1c1ccc(Cl)c(Cl)c1
- IC50 [2]: 16.3 µM (active)
- IC50 [3]: 8.14 µM (active)
- IC50 [4]: > 100 µM (not active)

Structure (SMILES): O=C(O)c1ccccc1Nc1ccc(OC(F)F)cc1
- IC50 [5]: 40.9 µM (active)
- CC50 [6]: 23.8 µM (active)

Structure (SMILES): COc1ccc(C(CNC(=O)Cc2ccc(-c3ccccc3)cc2)N(C)C)cc1 (stereo not drawn)
- EC50 [1]: 0.267 µM (active)

Structure (SMILES): Cc1sc2nc(C3CC3)nc(SCC(=O)N3c4ccccc4CC3C)c2c1C (stereo not drawn)
- IC50 [5]: 3.98 µM (active)
- CC50 [6]: 7.61 µM (active)

Structure (SMILES): N#Cc1c(NC(=O)CN2CCN(c3ccccc3)CC2)sc2c1CCC2
- IC50 [7]: 44.5 µM (not active)

Structure (SMILES): CCCCCSc1nnc2c(n1)OC(c1cccn1C)N(C(C)=O)c1ccccc1-2 (stereo not drawn)
- EC50 [1]: 10.6 µM (active)

Structure (SMILES): O=C1C(Cl)=C(Cl)C(=O)N1c1cccc([N+](=O)[O-])c1
- IC50 [2]: 11.9 µM (active)
- IC50 [3]: 16.4 µM (active)
- IC50 [4]: > 100 µM (not active)

Structure (SMILES): CC(C)N(C(=O)CSc1nc2ccccc2n1-c1ccccc1)C(C)C
- AC50 [8]: 5.12 µM (active)
- IC50 [9]: 3.82 µM (active)

Structure (SMILES): OCCC1CN(Cc2cccn2-c2nccs2)CCN1CCc1ccccc1 (stereo not drawn)
- IC50 [5]: 30.3 µM (active)

Structure (SMILES): CCCOc1ccccc1/C=C1\SC(N2CCCCC2)=NC1=O
- CC50 [6]: 44.7 µM (active)
- CC50 [10]: > 25 µM (active)
- IC50 [11]: 5.33 µM (active)

Structure (SMILES): O=C(Nc1ccc(F)cc1F)c1noc2c1CCC2
- IC50 [7]: > 50 µM (not active)

Structure (SMILES): C[C@H]1CC[C@H]2C(=O)N3[C@H](c4ccccc4Br)[C@@H](C)CC[C@H]3C(=O)N2[C@@H]1c1ccccc1Br
- IC50 [12]: 2.32 µM (active)
- IC50 [13]: 4.2 µM (active)
